Assay results published in PubChem BioAssay (NCI).
Where “and” joins values, the source holds several entries; their conditions need not be identical. Equal entries are not always repeated.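 All cell lines were grown in 96-well plates and treated with compound for 48 hours. Abbreviation: GI50, concentration required for 50% inhibition of growth. At the TGI there is no net growth.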

Tests used:
Assay in all cases: NCI anticancer screen, dose series, 48 h
HL-60(TB) leukemia = test system: HL-60(TB) leukemia
OVCAR-3 ovarian = test system: OVCAR-3 ovarian
SNB-75 CNS = test system: SNB-75 CNS
OVCAR-8 ovarian = test system: OVCAR-8 ovarian
SK-MEL-5 melanoma = test system: SK-MEL-5 melanoma
T-47D breast = test system: T-47D breast
A549 NSCLC = test system: A549 NSCLC
NCI-H460 lung = test system: NCI-H460 lung
HS 578T breast = test system: HS 578T breast
SK-MEL-2 melanoma = test system: SK-MEL-2 melanoma

| SMILES | GI50 (HL-60(TB) leukemia) | TGI (HL-60(TB) leukemia) | GI50 (OVCAR-3 ovarian) | TGI (OVCAR-3 ovarian) | GI50 (SNB-75 CNS) | TGI (SNB-75 CNS) | GI50 (OVCAR-8 ovarian) | TGI (OVCAR-8 ovarian) | GI50 (SK-MEL-5 melanoma) | TGI (SK-MEL-5 melanoma) | GI50 (T-47D breast) | TGI (T-47D breast) | GI50 (A549 NSCLC) | TGI (A549 NSCLC) | GI50 (NCI-H460 lung) | TGI (NCI-H460 lung) | GI50 (HS 578T breast) | TGI (HS 578T breast) | GI50 (SK-MEL-2 melanoma) | TGI (SK-MEL-2 melanoma) |
| --- | --- | --- | --- | --- | --- | --- | --- | --- | --- | --- | --- | --- | --- | --- | --- | --- | --- | --- | --- | --- |
| CC1=C(CCC(C)N(C)Cc2ccc(OCCCN3CCCC3)cc2)C(C)(C)CCC1 (centres undefined) | 3.87 µM | 20.4 µM | 5.72 µM | 19.3 µM | 1.58 µM | 3.92 µM | 5.75 µM | 19.9 µM | 1.75 µM | 3.15 µM | 1.72 µM | 4.97 µM | 6.48 µM | 20.5 µM | 3.02 µM | 8.81 µM | 2.53 µM | 9.73 µM | 2.96 µM | 7.49 µM |
| CNC(=O)OCc1c(COC(=O)NC)c(C)n(-c2ccc(Br)cc2)c1C | – | 31.9 µM | – | 30.4 µM | – | 19.1 µM | – | 24.8 µM | – | 28.1 µM | – | 54.9 µM | – | 38.1 µM | – | 24.1 µM | – | 33.5 µM | – | 31 µM |
| C=CC(=O)N(C)[C@H]1C[C@H]2OC(C)(C1OC)n1c3ccccc3c3c4c(c5c6ccccc6n2c5c31)C(=O)NC4 (some centres undefined) | 0.129 µM | 1.59 µM | 0.16 µM | 0.851 µM | 0.0137 µM | 0.0766 µM | 0.217 µM | – | 0.262 µM | 0.972 µM | 0.0774 µM | – | 0.0938 µM | > 20 µM | 0.0876 µM | 1.01 µM | 0.0887 µM | 0.6 µM | 0.193 µM | 1.49 µM |
| C[C@]12CC[C@H]3[C@@H](CCC4=CC(=O)CC[C@@H]43)[C@@H]1CC[C@@H]2OC(=O)CCc1ccccc1 | 2.41 µM | 35.5 µM | 15.8 µM | 30 µM | 29 µM | > 100 µM | 21.5 µM | 49.3 µM | 13 µM | 26 µM | 21.8 µM | 66.6 µM | 25.1 µM | > 73.7 µM | 17.1 µM | 35.6 µM | 4 µM | 21.8 µM | 41 µM | > 100 µM |
| Cc1ccc(NC(=O)/C=C/c2ccccc2)c(C(N)=O)c1 | 1.75 µM | 6.7 µM | 2.28 µM | 6.68 µM | 2.62 µM | 15.1 µM | 7.38 µM | > 100 µM | 1.94 µM | > 41.5 µM | 5.11 µM | > 74.4 µM | 5.28 µM | > 100 µM | 3.46 µM | 25.9 µM | 1.69 µM | 6.63 µM | 4.75 µM | 31.6 µM |
| COC(=O)Cn1c2c(c3c(O)cccc31)C(=O)c1ccccc1-2 | > 100 µM | > 100 µM | > 100 µM | > 100 µM | > 100 µM | > 100 µM | > 100 µM | > 100 µM | > 100 µM | > 100 µM | > 100 µM | > 100 µM | > 100 µM | > 100 µM | > 100 µM | > 100 µM | > 100 µM | > 100 µM | > 100 µM | > 100 µM |
| CCCn1c(C)nc2c1C(=O)c1ccccc1C2=O | 9.61 µM | 45.8 µM | 11.6 µM | 39.2 µM | 55.4 µM | > 100 µM | 31.8 µM | > 100 µM | 13.4 µM | 27.2 µM | 35.1 µM | > 100 µM | 28.5 µM | > 100 µM | 20.4 µM | 57.3 µM | 17.8 µM | > 100 µM | 59.4 µM | > 100 µM |
| O=C1C(=O)c2c(nc3ccc(Cl)cn23)-c2ccccc21 | 0.235 µM | – | 0.249 µM | 0.908 µM | 1.25 µM | 2.61 µM | 0.471 µM | 1.91 µM | 0.161 µM | 0.309 µM | 0.394 µM | 1.6 µM | 0.84 µM | – | 0.538 µM | 2.31 µM | 0.239 µM | 0.74 µM | 0.432 µM | 1.61 µM |
| C[C@]12CCC3[C@@H](CC[C@@H]4c5nonc5CC[C@]34C)C1CCC(=O)N2 (some centres undefined) | – | > 100 µM | – | > 100 µM | 35.2 µM | > 100 µM | – | > 100 µM | – | > 100 µM | > 100 µM | > 100 µM | – | > 100 µM | – | > 100 µM | > 100 µM | > 100 µM | – | > 100 µM |
| C=CC(=O)Nc1cccc(C)c1Nc1cc(-c2cccnc2Cc2c(C)c(OC)cc(OC)c2C)ncn1 | 5.22 µM | 48.9 µM | 7.04 µM | 38.9 µM | 13.2 µM | 91.2 µM | 12 µM | 50 µM | 10.7 µM | 23.5 µM | 7.92 µM | > 100 µM | 16.2 µM | > 100 µM | 4.91 µM | 31.7 µM | 10.6 µM | 68.3 µM | 12.6 µM | 32.4 µM |
| C=C1CC[C@@H]2[C@](C)(COC(C)=O)[C@@H](O)CC[C@@]2(C)[C@@H]1COc1ccc2ccc(=O)oc2c1 | > 100 µM | > 100 µM | > 100 µM | > 100 µM | 17.6 µM | > 100 µM | > 100 µM | > 100 µM | > 100 µM | > 100 µM | > 100 µM | > 100 µM | > 100 µM | > 100 µM | > 100 µM | > 100 µM | 29.9 µM | > 100 µM | > 100 µM | > 100 µM |
| COc1ccc2cc(-c3ccoc(=O)c3-c3cc(OC)c(OC)c(OC)c3)ccc2c1 | 0.0353 µM | 0.793 µM | 0.0316 µM | > 100 µM | 0.0977 µM | > 100 µM | 0.334 µM | > 100 µM | 0.0379 µM | 4.1 µM | 0.0772 µM | > 100 µM | 0.0775 µM | > 100 µM | 0.0526 µM | > 32 µM | 0.134 µM | > 100 µM | 0.0752 µM | > 100 µM |
| O=S(=O)(NCCNC/C=C/c1ccc(Br)cc1)c1cccc2cnccc12 | > 24.6 µM and 9.48 µM | > 49.4 µM and 28.1 µM | 12 µM and 14.2 µM | 24.6 µM and 28.3 µM | 3.14 µM and 1.85 µM | 14.7 µM and 13.5 µM | 13 µM and 15.6 µM | 28.5 µM and 32.3 µM | 6.07 µM and 13.3 µM | 19.3 µM and 26.5 µM | 3.93 µM and 6.45 µM | 18.4 µM and 26 µM | 11.3 µM and 13.6 µM | 24.9 µM and 27.4 µM | 9.76 µM and 15.4 µM | 26.2 µM and 31.6 µM | 4.62 µM and 12 µM | 42 µM and 51.9 µM | 11.2 µM and 16.8 µM | 24.4 µM and 34 µM |
